Assay results from article PMC8076288, “Effect of respiratory inhibitors and quinone analogues on the aerobic electron transport system of Eikenella corrodens” (Scientific Reports, 2021).

Experiments:
[1] = molecular target: T1, bc1 complex (complex III) (Eikenella corrodens, UniProt V7IIL5); assay: polarographic O2 uptake (Clark electrode), succinate oxidase of membranes; assay type: biochemical; conditions: succinate as substrate, 34 °C; read-out is the whole succinate respiration
T1 construct: gene HMPREF1177_00380; native complex in isolated membrane particles, not purified; with Ubiquinol-cytochrome c reductase iron-sulfur subunit; Cytochrome c1
T1 sequence (V7IIL5 1-530): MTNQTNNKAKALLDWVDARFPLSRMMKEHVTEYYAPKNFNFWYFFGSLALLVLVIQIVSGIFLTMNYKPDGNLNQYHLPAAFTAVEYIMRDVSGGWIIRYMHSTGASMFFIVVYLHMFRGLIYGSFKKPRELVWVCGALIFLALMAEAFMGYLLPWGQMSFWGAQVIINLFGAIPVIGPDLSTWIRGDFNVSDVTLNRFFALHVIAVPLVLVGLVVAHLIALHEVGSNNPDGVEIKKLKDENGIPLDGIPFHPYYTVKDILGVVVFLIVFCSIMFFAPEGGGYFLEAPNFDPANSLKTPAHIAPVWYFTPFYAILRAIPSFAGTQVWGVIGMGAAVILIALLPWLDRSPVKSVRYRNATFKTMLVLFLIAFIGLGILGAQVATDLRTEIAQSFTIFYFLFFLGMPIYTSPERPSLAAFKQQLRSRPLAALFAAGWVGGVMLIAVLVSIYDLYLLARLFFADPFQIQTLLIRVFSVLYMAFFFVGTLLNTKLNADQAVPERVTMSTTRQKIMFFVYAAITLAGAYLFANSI
T1 sequence (V7IHH9 1-197 partner): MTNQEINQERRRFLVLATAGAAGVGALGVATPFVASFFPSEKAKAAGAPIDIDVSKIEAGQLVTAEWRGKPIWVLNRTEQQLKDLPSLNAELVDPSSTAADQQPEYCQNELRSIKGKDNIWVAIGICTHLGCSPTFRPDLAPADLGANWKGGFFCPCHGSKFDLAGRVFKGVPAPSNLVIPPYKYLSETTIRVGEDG

[2] = molecular target: T2, dissimilatory nitrate reductase, Nar (Eikenella corrodens, UniProt V7IBI8); assay: oxidation of reduced methyl viologen at […] nm, membranes; assay type: biochemical; conditions: 1 mM dithionite-reduced methyl viologen, 2 mM nitrate, pH 7.4, anaerobic
T2 construct: gene HMPREF1177_02096; with Respiratory nitrate reductase beta subunit; Respiratory nitrate reductase gamma subunit
T2 sequence (V7IA22 entry or part of it): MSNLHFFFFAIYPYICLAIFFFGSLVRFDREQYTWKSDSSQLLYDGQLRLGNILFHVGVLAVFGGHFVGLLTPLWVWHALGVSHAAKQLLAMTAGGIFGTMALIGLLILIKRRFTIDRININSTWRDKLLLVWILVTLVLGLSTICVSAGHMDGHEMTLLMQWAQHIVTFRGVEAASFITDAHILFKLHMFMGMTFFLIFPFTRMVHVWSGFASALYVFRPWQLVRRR
T2 sequence (V7IBP6 entry or part of it, further chain): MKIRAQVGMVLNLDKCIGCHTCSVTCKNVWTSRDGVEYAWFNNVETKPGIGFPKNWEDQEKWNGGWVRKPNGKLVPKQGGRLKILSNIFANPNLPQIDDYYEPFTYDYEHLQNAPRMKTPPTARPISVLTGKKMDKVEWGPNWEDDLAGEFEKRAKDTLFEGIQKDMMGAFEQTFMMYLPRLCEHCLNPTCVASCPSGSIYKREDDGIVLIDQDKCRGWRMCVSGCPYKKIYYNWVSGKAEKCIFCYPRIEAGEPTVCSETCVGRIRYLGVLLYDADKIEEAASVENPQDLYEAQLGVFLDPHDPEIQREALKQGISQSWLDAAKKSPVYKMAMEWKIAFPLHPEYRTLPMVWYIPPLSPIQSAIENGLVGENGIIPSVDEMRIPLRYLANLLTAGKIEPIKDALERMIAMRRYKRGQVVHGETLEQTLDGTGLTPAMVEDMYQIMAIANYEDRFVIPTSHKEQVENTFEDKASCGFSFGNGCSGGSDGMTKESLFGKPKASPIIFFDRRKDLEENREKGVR
T2 sequence (V7IBI8 entry or part of it): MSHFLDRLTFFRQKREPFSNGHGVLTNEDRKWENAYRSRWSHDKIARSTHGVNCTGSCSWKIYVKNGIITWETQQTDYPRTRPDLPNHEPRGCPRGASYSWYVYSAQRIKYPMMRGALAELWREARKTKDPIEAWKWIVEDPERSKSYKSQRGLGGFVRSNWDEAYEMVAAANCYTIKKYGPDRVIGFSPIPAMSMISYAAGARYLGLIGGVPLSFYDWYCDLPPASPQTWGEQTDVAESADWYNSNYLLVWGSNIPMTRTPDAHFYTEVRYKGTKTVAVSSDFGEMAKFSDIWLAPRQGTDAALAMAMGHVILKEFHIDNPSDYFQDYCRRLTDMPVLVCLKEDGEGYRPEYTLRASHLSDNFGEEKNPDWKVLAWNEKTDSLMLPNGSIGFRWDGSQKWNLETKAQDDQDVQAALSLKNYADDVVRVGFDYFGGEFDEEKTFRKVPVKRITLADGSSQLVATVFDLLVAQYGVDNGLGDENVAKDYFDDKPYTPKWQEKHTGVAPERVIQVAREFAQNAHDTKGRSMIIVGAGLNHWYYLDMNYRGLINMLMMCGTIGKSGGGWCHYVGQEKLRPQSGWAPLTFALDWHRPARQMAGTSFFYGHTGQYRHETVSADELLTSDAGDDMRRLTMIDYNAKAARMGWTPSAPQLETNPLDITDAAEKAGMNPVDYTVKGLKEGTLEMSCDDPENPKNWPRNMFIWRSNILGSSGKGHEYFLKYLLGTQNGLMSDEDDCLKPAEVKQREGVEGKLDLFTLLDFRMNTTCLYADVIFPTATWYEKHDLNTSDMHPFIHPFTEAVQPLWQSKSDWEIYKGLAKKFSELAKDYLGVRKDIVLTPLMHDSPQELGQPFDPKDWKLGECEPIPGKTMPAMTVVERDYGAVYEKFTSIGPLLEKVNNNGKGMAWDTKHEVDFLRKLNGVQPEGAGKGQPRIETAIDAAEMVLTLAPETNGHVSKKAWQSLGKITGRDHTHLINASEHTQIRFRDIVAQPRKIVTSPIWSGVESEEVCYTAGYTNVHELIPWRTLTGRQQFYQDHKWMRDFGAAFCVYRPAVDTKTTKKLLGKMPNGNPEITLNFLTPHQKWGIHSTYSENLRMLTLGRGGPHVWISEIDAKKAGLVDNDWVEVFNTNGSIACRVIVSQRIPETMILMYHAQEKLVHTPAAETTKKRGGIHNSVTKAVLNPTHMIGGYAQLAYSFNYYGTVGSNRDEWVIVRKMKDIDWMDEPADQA

Row | Compound | IC50 [1] [µM] | oxidation of reduced methyl viologen at 600 nm, membranes [2]
1 | CCCCCCCc1cc(O)c2ccccc2[n+]1[O-] [HQNO, 2-heptyl-4-hydroxyquinoline-N-oxide] | 40 | –
2 | O=[N+]([O-])O [nitrate] | – | The reaction was started by the injection of an anaerobic solution of potassium nitrate
3 | antimycin A3 | 20 | –
